The source of these data is patent US20080318783A1, “Use of abscisic acid seed treatment to enhance corn emergence after early planting” (priority 2007, published 2008).

Common to all, as to type: in vivo, Zea mays
One assay has as its system Corn seed (Hughes 5813). Description: Seed treatment with ABA and stimulators of guanylate cyclase, cold damage during germination. The method, then:
Corn seed (Hughes 5813) was treated with sodium ABA salt as described under Example 3. ABA rates of 0 and 20 ug/seed were applied either alone or with compounds that are selective and potent activators of soluble guanylate cyclase in animal and plant cells. These agent are YC-1 (3-(5′-hydroxymethyl-2′-furyl)-1-benzylindazole) and BAY 41-2272 (5-cyclopropyl-2-[1-(2-fluoro-benzyl)-1H-pyrazolo[3,4-b]pyridine-3-yl]pyrimidin-4-ylamine).

The test system of assay [1] is Corn ("Hughes High" variety) seedlings. As to the kind of experiment: Dip treatment of 2-day old corn seedlings, cold damage after 0° C. for 4 days (rolled towels). Particulars: for Adventitious root growth (%) / Destroyed roots (%) / Lethal shoot (%): ~30 s, 0° C. 4 days, scored 3 days later. On the procedure: Corn (“Hughes High” variety) was germinated in the dark in moist rolled towels at 25° C. for 2 days. Seedlings were selected that were undamaged, with a radicle of 1-2 cm and a coleoptile of 0.5 to 1 cm in length. Solutions in water with 5% ethanol were made with different concentrations of ABA and PBI-429. The seedlings were dipped in the solutions with gentle agitation for approximately 30 seconds and drained. The seedlings were placed on moist towels, gently rolled and held at 18° C. for 16 hours. Then the rolled towels were packed in ice for four days. After the chilling period, the rolled towels were blotted to remove excess water and transferred to a 25° C. chamber. Seedling damage was scored 3 days later. Lethal injury of the shoot consisted of either destruction of the mesocotyl or splitting or reduction of the coleoptile judged sufficient to prevent emergence of seedlings in the field (although this trial was conducted in towels). Seedlings with destroyed roots had no living primary or seminal roots. Seedlings with adventitious root growth from the mesocotyl were counted.

For assay [2], the system named is "Hughes High" hybrid corn seed. As to the kind of experiment: Seed treatment with ABA, cold damage (ice, 4 days) during germination in moist towels. Particulars: 48 h at 25° C., then ice 4 days. The method, then: ABA was applied to corn seed at 0, 1, 5, 25 and 125 g/cwt (seed weight basis). The ABA was first converted to the sodium salt to render it soluble before making up the experimental seed treatment slurries. The treatments were made up in 3 ml samples of an aqueous slurry. All of the seed treatment slurry samples contained CF-Clear film-forming agent and Colorcoat Red (Becker Underwood), each at loz/cwt, and 0.167 oz/cwt Maxim XL fungicide (Syngenta). The slurry application volume was 20 oz/cwt (cwt=100 lbs of seed). One hundred gram samples of “Hughes High” hybrid corn seed were treated with the experimental slurries using a Hege 11 seed treater with a six-inch bowl.
Three replications of 50 seeds each were planted were planted in moist towels and germinated in the dark at 25° C. for 48 hours. The rolled towels were then packed in ice for 4 days. After the cold period the towels were blotted and germination continued until the seedlings were large enough so that each seedling could be scored. In the case of the 125 g rate, this took 2 weeks. Seedling organs were scored independently for damage to the primary root, seminal roots, mesocotyl, coleoptile and the scutellar node.

For assay [3], the system named is Corn seed (Hughes 1883). Description: Soil test, standard delayed chilling (severe chilling after 2 days germination). Particulars: for Strong seedlings (%) / Viable seedlings (%): soil, 2 days germination, then 1° C. 4 days. On the procedure: (§1) Corn seed (Hughes 1883) was treated with ABA ammonium salt as described under Example 2. ABA rates of 0, 5, 10 and 25 g/cwt were applied.
(§2) The seed was planted in plastic boxes containing lkg of typical agricultural silt loam. Fifty seeds were planted 3 cm deep in each plastic box, and the soil in the box was adjusted to 23% soil moisture (wet-weight basis). Two replications of the experiment were performed. Two kinds of cold tolerance assays were conducted, “standard delayed chilling” and “chilling at spiking.” The boxes for the standard delayed chilling were […] and transferred to 1° C. for four days. Boxes for the “chilling at spiking” treatment were allowed to germinate at 25° C. until the coleoptiles were first observed emerging from the soil. This common point of development varied from 3 to 6 days depending upon the dose of ABA. Then these boxes too were transferred to the 1° C. chamber for four days.
(§3) After the cold treatment the boxes were moved to the 25° C. chamber for one week. The soil was washed from the seedlings and each seedling scored for damage as described under Example 2. “Viable seedlings” were seedlings capable of surviving under typical field conditions.

The test system of assay [4] is Corn seed (Hughes 1883). Description: Soil test, chilling at spiking (chilling at point of initial emergence). Particulars: for Strong seedlings (%) / Viable seedlings (%): soil, 1° C. 4 days applied at initial emergence (spiking). The method, then:
as §1, §2, §3

[5] abbreviates: Bay 41-2272 1 μg/seed, ABA 0 μg/seed.
[6] abbreviates: Bay 41-2272 10 μg/seed, ABA 0 μg/seed.
The mark [7] stands for this setting: ABA (sodium salt) seed treatment 1 g/cwt.
[8] abbreviates: ABA (sodium salt) seed treatment 5 g/cwt.
The mark [9] stands for this setting: ABA (sodium salt) seed treatment 25 g/cwt.
The mark [10] stands for this setting: ABA (sodium salt) seed treatment 125 g/cwt.
Where [11] appears, read: ABA ammonium salt seed treatment 5 g/cwt.
Where [12] appears, read: ABA ammonium salt seed treatment 10 g/cwt.
The mark [13] stands for this setting: ABA ammonium salt seed treatment 25 g/cwt.
The mark [14] stands for this setting: ABA (sodium salt) 20 μg/seed alone, sGC activator 0 μg/seed.

For the molecule `Nc1nc(-c2nn(Cc3ccccc3F)c3ncccc23)ncc1C1CC1` [Bay 41-2272, 5-cyclopropyl-2-[1-(2-fluoro-benzyl)-1H-pyrazolo[3,4-b]pyridine-3-yl]pyrimidin-4-ylamine], in the assay on Corn seed (Hughes 5813) (setting [5]), the “Percent Strong Seedlings” value is 1% and the “Percent Viable Seedlings” value is recorded as 65%. Further, in the assay on Corn seed (Hughes 5813) (setting [6]), the “Percent Strong Seedlings” value came out at 0% and the “Percent Viable Seedlings” value worked out at 64%.

S-(+)-abscisic acid [ABA]: the entries for the “Adventitious root growth (%)” value in assay [1] (ABA dip 10 ppm), in assay [1] (ABA dip 100 ppm) and in assay [1] (ABA dip 1000 ppm) were 7%, 20% and 89%, respectively. For the same molecule, the “Destroyed roots (%)” value in assay [1] (ABA dip 10 ppm) worked out at 86%; in assay [1] (ABA dip 100 ppm), 84%; in assay [1] (ABA dip 1000 ppm), 48%. Further, the figures for the “Lethal shoot (%)” value in assay [1] (ABA dip 10 ppm), in assay [1] (ABA dip 100 ppm) and in assay [1] (ABA dip 1000 ppm) were 62%, 47% and 11%, respectively. Further, in assay [1] (applied to the seedling prior to cold stress), the “Protection of seedlings from cold injury (in words)” value was “can provide protection from injury, and stimulate adventitious root growth”. For the same molecule, the “Seedlings with lethal root injury (%)” value in assay [2] (setting [7]) worked out at 23.3%; in assay [2] (setting [8]), 0.7%; in assay [2] (setting [9]) it was 0.0%; in assay [2] (setting [10]), 0.7%. Moreover, the “Seedlings with lethal shoot injury (%)” value in assay [2] (setting [7]) stood at 19.3%; in assay [2] (setting [8]), 8.0%; in assay [2] (setting [9]), 15.5%; in assay [2] (setting [10]) it was 11.4%. In addition, the “Strong seedlings (%)” value in assay [2] (setting [7]) is on record as 18.0%; in assay [2] (setting [8]), 88.7%; in assay [2] (setting [9]), 95.3%; in assay [2] (setting [10]), 81.3%; in the assay on Corn seed (Hughes 1883) [3] (setting [11]), 53%; with Corn seed (Hughes 1883) [3] (setting [12]) it was 96%. Also, the “Strong seedlings (%)” value stood at 100% in the assay with Corn seed (Hughes 1883) [3] (setting [13]), 0% in the assay with Corn seed (Hughes 1883) [4] (setting [11]), 18% in the assay with Corn seed (Hughes 1883) [4] (setting [12]) and 10% in the assay on Corn seed (Hughes 1883) [4] (setting [13]). Also, the “Viable seedlings (%)” value in the assay on Corn seed (Hughes 1883) [3] (setting [11]) is 99.5%; with Corn seed (Hughes 1883) [3] (setting [12]), 99.5%; in the assay with Corn seed (Hughes 1883) [3] (setting [13]), 100%; in the assay on Corn seed (Hughes 1883) [4] (setting [11]), 5%; in the assay with Corn seed (Hughes 1883) [4] (setting [12]), 62%; with Corn seed (Hughes 1883) [4] (setting [13]), 23%. The “Protection from cold in field soil (in words)” value in the assay on Corn seed (Hughes 1883) [3] (delivered as a seed treatment) was “protection of germinating seeds and young seedlings in field soil”. The “Protection of seedlings from cold damage (in words)” value with Corn seed (Hughes 1883) [4] (seed treatment, chilling at spiking) is “results not only from delay of germination, but from induction of cold tolerance in the tissue”. For the same molecule, in the assay with Corn seed (Hughes 5813) (setting [14]), the “Percent Strong Seedlings” value is reported as 67%. Further, the “Percent Viable Seedlings” value in the assay on Corn seed (Hughes 5813) (setting [14]) is given as 100%.

Turning to `OCc1ccc(-c2nn(Cc3ccccc3)c3ccccc23)o1` [YC-1, 3-(5′-hydroxymethyl-2′-furyl)-1-benzylindazole], in the assay with Corn seed (Hughes 5813) (YC-1 1 μg/seed, ABA 0 μg/seed), the “Percent Strong Seedlings” value worked out at 0% and the “Percent Viable Seedlings” value turned out to be 44%. Besides, in the assay with Corn seed (Hughes 5813) (YC-1 10 μg/seed, ABA 0 μg/seed), the “Percent Strong Seedlings” value is 4% and the “Percent Viable Seedlings” value was found to be 46%.
